Experimental data as given in patent US7754686B2, “Stabilized FGF formulations containing reducing agents” (Novartis Vaccines and Diagnostics, Inc., priority 2000, dated 2010).

Legend:
[1] = Storage stability of liquid FGF-2 formulations by RP-HPLC (% main peak); format: physicochemical; conditions: 0-10 mM DTT, FIGS. 1-3
Method: Reversed Phase HPLC (RP-HPLC) was performed using a Waters 600S controller and a Waters 717 autosampler. Separations were accomplished on a Zorbax 300SB-CN, 4.6 mm ID×15 cm, 5:, cyano column with sample detection at 214 nm on a Waters 486 UV detector. Samples were run at 1.0 mL/min and injection volumes were 50 μL (˜15 μg of protein per injection). […] Much of FGF-2 instability in pharmaceutical formulations can be attributed to oxidation. The stability of FGF-2 in different formulations can be quantitated by measuring the retention of the main peak using RP-HPLC. This main peak corresponds to the FGF-2 that remains in the reduced form. Using the analytical procedures described herein, the storage stability of FGF-2 under several conditions was followed by monitoring changes in the RP-HPLC main peak as a function of storage time at 4° C., 17° C., and 30° C. Experiments were conducted to determine the appropriate levels of dithiothreitol (DTT) required for maximum stability of FGF-2 formulations. Concentrations of DTT from 0 to 10 mM were examined in formulations between pH 5.5 and pH 6.5. In this example, all formulations were liquids and were produced from the same lot of bulk drug. Formulations were stored at 4° C., 17° C., and 30° C. […] Stability of the formulations was assessed by a number of assays. […]

[2] = Storage stability of lyophilized FGF-2 formulations by RP-HPLC (% main peak); format: physicochemical; conditions: 0.35 and 3.5 mg/ml, 10 mM DTT, pH 6.0, storage at 30° C. for 1 year, FIG. 7
Method: Reversed Phase HPLC (RP-HPLC) was performed using a Waters 600S controller and a Waters 717 autosampler. Separations were accomplished on a Zorbax 300SB-CN, 4.6 mm ID×15 cm, 5:, cyano column with sample detection at 214 nm on a Waters 486 UV detector. Samples were run at 1.0 mL/min and injection volumes were 50 μL (˜15 μg of protein per injection).
rhFGF-2 was lyophilized using the following cycle: Vials were placed on pre-cool shelves set at 10° C. The shelf temperature was ramped at 40° C./hour to −50° C. where the vials were frozen for 2 hours. The temperature of the shelves was then ramped at 40° C. per hour to −25° C. and held for 2 hours to crystallize the glycine in the formulation. A vacuum of 50 μm was then initiated, and primary drying was accomplished over 32 hours. After primary drying was complete, the shelf temperature was ramped at 25° C./hour to 40° C. for 8 hours. The temperature was then reduced to 4° C. and the vials were stoppered and capped.
FGF-2 stability was examined in both liquid and lyophilized (freeze-dried) formulations using RP-HPLC. As in the previous study, liquid formulations were stored at 4° C., 17° C., and 30° C.
Lyophilized formulations were stored at 40° C. and 50° C. […]
Lyophilized formulations were stored for 12 months at 4° C., 25° C. and 30° C. Stability was monitored with a number of stability indicating assays. […]

Molecule	protection of FGF-2 from oxidation [1]	degradation (RP-HPLC main peak) [2]
O[C@H](CS)[C@H](O)CS (racemic) [DTT, dithiothreitol]	protects FGF-2 from oxidation in a concentration-dependent manner	–
rhFGF-2: recombinant human FGF-2 having the sequence set forth in SEQ ID NO:1	–	little (if any) detectable degradation
